Measurements as given in ChEMBL document CHEMBL1201862, “PubChem BioAssay data set” (2004).
Calls of active or inactive are those of the source.

Assays:
[1] = molecular target: Delta-type opioid receptor (Homo sapiens, UniProt P41143); assay: Counterscreen for agonists of heterodimerization of the mu 1 (OPRM1) and delta 1 (OPRD1) opioid receptors: Luminescence-based cell-based high throughput dose response assay to identify agonists of OPRD1 homodimerization. [Related pubchem assays (depositor defined):AID504326, AID504355, AID504692, AID504904, AID504905]; assay type: functional
Sequence of Delta-type opioid receptor (P41143 whole entry): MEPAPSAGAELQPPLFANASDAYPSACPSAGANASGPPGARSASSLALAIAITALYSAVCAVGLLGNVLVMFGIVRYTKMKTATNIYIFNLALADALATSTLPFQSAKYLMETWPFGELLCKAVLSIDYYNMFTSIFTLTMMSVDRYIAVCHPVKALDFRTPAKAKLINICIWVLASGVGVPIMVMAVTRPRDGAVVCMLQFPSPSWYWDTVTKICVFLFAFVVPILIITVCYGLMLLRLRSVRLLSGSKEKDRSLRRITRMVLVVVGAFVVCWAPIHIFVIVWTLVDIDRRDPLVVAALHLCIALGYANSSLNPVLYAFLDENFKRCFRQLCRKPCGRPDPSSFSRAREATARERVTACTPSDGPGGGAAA

Mu-type opioid receptor = Mu-type opioid receptor (Homo sapiens, UniProt P35372); assay: Counterscreen for agonists of heterodimerization of the mu 1 (OPRM1) and delta 1 (OPRD1) opioid receptors: Luminescence-based cell-based high throughput dose response assay to identify agonists of OPRM1 homodimerization.; assay type: functional;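 also: U2OS cells expressing OPRM1 and beta-arrestin as split beta-galactosidase partners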
Sequence of Mu-type opioid receptor (P35372 whole entry): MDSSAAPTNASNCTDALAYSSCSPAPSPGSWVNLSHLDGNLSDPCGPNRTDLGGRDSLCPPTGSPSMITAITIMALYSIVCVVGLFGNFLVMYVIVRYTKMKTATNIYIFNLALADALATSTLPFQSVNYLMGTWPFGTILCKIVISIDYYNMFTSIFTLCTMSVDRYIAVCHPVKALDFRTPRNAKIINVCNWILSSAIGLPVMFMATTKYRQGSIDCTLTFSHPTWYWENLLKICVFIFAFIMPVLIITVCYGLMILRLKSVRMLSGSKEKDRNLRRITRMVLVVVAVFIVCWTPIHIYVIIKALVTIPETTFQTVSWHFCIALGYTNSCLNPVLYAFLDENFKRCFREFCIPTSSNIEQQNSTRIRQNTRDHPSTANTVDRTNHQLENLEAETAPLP

[2] = molecular target: 5-hydroxytryptamine receptor 5A (Homo sapiens, UniProt P47898); assay: Counterscreen for agonists of OPRM1-OPRD1 heterodimerization: luminescence-based cell-based high throughput dose response assay to identify agonists of 5-hydroxytryptamine (serotonin) 5A receptor (HTR5A). [Related pubchem assays (depositor defined):AID504326, AID504355, AID504692, AID504904, AID504905]; assay type: functional
Sequence of 5-hydroxytryptamine receptor 5A (P47898 whole entry, the tested form may be a part): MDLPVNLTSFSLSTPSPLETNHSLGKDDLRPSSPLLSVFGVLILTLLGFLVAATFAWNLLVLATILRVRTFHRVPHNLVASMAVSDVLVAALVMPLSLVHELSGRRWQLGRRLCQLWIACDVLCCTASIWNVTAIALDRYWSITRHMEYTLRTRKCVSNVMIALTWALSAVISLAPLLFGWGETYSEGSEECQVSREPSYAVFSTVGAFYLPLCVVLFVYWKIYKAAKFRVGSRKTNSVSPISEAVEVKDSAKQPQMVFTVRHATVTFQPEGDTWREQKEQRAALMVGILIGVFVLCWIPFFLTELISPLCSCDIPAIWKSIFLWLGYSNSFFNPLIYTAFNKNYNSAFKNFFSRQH

[3] = molecular target: Hepatocyte nuclear factor 4-alpha (Homo sapiens, UniProt P41235); assay type: functional, cell-based;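 also: biochemical luminescence-based dose-response counterscreen measuring inhibition of HNF4 dimerization, run alongside a screen for blockers of ABHD5–perilipin-5 interaction; split luciferase complementation of HNF4 fusion proteins in cell lysate measuring dimerization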
Sequence of Hepatocyte nuclear factor 4-alpha (P41235 whole entry, the tested form may be a part): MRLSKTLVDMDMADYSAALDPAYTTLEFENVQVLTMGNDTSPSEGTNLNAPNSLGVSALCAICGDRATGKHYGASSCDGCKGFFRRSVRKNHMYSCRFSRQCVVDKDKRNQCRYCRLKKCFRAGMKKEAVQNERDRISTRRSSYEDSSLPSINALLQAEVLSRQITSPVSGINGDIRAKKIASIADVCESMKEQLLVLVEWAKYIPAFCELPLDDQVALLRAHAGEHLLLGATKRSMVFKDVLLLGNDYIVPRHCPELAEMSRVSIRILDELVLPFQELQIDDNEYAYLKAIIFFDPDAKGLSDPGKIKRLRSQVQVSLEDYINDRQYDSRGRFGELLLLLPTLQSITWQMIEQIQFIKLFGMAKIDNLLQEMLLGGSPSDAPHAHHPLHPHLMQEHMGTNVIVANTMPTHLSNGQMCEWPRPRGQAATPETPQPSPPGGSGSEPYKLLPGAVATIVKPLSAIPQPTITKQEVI

Vero [4] = assay: cells; assay type: functional, cell-based; conditions: Chlorocebus sabaeus
Vero [5] = assay: cells; assay type: functional; conditions: Chlorocebus sabaeus

## O=S(=O)(c1c(Cl)cc(Br)cc1Cl)N1CCN(C(=S)NC2CC2)CC1
[1]
  EC50: 11.9 µM (inactive)
Mu-type opioid receptor
  EC50: > 92.5 µM (inactive)
[2]
  EC50: > 92.5 µM (inactive)

## COC(=O)c1ccc(Cn2cc(/C=C\[N+](=O)[O-])c3ccccc32)o1
[3]
  IC50: 6.73 µM (active)
Vero [4]
  IC50: > 25 µM (active)
Vero [5]
  CC50: 10.4 µM (active)
